According to patent US11407768B2, “AMPK activators” (Kallyope, Inc., priority 2020, dated 2022):

Assays:
in vitro = conditions: human; for Papp A→B at 2 h, 2 μM / Papp B→A at 2 h, 2 μM: Caco-2, pH 7.4; for efflux ratio at 2 h, 2 μM: Caco-2, pH 7.4, Efflux Ratio
Experimental: (§1) Caco-2 cells purchased from ATCC were seeded onto […] (PET) in 96-well BD Insert plates at 1×10^5 cells/cm^2, and refreshed medium every 4-5 days until to the 21st to 28th day for confluent cell monolayer formation. The transport buffer in the study was HBSS with 10 mM HEPES at pH 7.40±0.05. Test compounds were tested at 2 μM bi-directionally in duplicate. Digoxin was tested at 10 μM bi-directionally in duplicate, while nadolol and metoprolol were tested at 2 μM in A to B direction in duplicate. Final DMSO concentration was adjusted to less than 1%.
(§2) The plate was incubated for 2 hours in CO2 incubator at 37±1° C., with 5% CO2 at saturated humidity without shaking. All samples were mixed with acetonitrile containing internal standard and were centrifuged at 4000 rpm for 10 min. Subsequently, 100 μL supernatant solution was diluted with 100 μL distilled water for LC/MS/MS analysis. Concentrations of test and control compounds in starting solution, donor solution, and receiver solution were quantified by LC/MS/MS, using peak area ratio of analyte/internal standard.

Caco-2 cells = test: in vitro; conditions: for permeability (in words): Caco-2
Experimental: as §1, §2

[1] = target: Recombinant AMPK α1/β1/γ1 complex (Homo sapiens (Human), UniProt Q13131+Q9Y478); test: In vitro pAMPK1 kinase activation assay (ADP-Glo, SAMS peptide); type: biochemical; conditions: AMPK α1/β1/γ1 pre-activated with CAMKK2; 12-point curve; 15 min compound incubation
Sequence of Recombinant AMPK α1/β1/γ1 complex (Q13131 whole entry): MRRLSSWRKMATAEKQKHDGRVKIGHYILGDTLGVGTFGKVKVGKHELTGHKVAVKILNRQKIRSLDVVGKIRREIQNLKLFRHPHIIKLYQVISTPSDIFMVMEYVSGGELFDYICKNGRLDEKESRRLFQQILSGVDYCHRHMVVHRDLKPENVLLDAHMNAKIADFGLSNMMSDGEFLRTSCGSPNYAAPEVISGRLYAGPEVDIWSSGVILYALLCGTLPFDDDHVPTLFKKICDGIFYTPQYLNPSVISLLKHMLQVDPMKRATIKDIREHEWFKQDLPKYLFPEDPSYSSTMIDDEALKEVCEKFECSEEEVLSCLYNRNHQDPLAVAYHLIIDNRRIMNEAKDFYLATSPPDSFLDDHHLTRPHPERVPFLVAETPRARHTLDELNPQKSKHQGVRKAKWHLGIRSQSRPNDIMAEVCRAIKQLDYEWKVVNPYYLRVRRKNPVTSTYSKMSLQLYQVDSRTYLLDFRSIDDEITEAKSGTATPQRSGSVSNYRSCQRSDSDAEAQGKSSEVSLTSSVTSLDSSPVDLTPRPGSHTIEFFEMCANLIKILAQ
Sequence of Recombinant AMPK α1/β1/γ1 complex (Q9Y478 whole entry): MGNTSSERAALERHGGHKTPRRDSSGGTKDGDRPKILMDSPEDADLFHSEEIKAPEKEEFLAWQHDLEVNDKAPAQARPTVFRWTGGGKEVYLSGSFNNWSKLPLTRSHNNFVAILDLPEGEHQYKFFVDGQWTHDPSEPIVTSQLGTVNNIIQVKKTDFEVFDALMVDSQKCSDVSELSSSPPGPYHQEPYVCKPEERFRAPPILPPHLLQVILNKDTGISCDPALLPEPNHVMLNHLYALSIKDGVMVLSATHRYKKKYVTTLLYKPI
Sequence of Recombinant AMPK α1/β1/γ1 complex (P54619 whole entry partner): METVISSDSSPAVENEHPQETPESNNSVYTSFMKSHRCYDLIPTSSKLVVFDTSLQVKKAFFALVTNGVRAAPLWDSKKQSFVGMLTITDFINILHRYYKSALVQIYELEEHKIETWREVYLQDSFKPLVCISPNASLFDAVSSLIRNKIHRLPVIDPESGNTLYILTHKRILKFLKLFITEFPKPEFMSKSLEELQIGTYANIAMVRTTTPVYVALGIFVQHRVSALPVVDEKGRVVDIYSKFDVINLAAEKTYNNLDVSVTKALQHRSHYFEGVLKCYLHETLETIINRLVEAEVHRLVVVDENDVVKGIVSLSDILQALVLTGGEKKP
In short: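 CAMKK2-pre-activated α1/β1/γ1 complex incubated 15 minutes with compound, then SAMS peptide phosphorylation measured cell-free by ADP-Glo. 12-point concentration curves; EC50 fitted by interpolation to an ATP:ADP standard curve.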

blood glucose levels = test: Intraperitoneal (IP) glucose tolerance test in mice; type: in vivo; conditions: for % Change in Average Total AUC (0-90 min) vs. Vehicle: blood glucose, glucose 2 g/kg IP; for change in blood glucose AUC vs. vehicle / systemic AMPK activation (in words): 30 mpk for all compounds, up to 100 mpk for Compound 4
Excerpt: Systemic AMPK target engagement in vivo can be assessed by measuring the glucose levels in blood following administration of compounds, whereby AMPK activation in skeletal muscle leads in a decrease in overall blood glucose levels.
Compounds were formulated in vehicle (0.25% methyl cellulose, 5% Tween 80, 0.02% sodium dodecyl sulfate (SDS) in Hanks' Buffered Salt Solution with Ca^2+ and Mg^2). Immediately prior to compound dosing, the tip of the tail was removed with scissors and a drop of blood was collected onto a glucometer strip (Bayer Contour Next) for a −1 hour blood glucose measure. The mice were then immediately administered vehicle or compound at 10 mL/kg PO. Approximately one hour later, mice were tail bled for a 0 min blood glucose reading, and then immediately after were administered D(+) glucose (2 g/kg, made up in saline) at 5 mL/kg IP. Tail bleeds were then performed on all mice at 20 min, 40 min, 60 min, and 90 min post D(+) glucose administration for blood glucose measures. Area under the curves (AUCs) for blood glucose measures were then calculated for each treatment from 0-90 mins.

[2] = test system: Madin-Darby Canine Kidney (MDCK) cells; test: In vitro MDCK epithelial permeability assay (calcium switch, FITC-dextran); type: cell-based; conditions: low calcium medium, MDCK monolayers
Excerpt: In order to quantitatively measure the effects of transporter substrate AMPK activators on epithelial permeability in vitro, standard calcium switch protocols from the literature were adapted for use with Madin-Darby Canine Kidney (MDCK) cells grown on Corning Transwell inserts for use with fluorescein isothiocyanate-dextran, average molecular weight 4 kDa (FITC-dextran). FITC-dextran is a large, metabolically inert sugar molecule that is not readily transferrable across healthy epithelial barriers in vitro or in vivo. This compound has been tagged with a fluorophore to easily track its movement.
Briefly, MDCK cells were seeded onto Transwell inserts and grown according to manufacturer instructions until confluent. On the day of the experiment, a baseline reading was taken in standard growth media in which FITC-dextran was spiked into the apical chamber and the percent permeation of FITC-dextran from the apical to the basolateral chamber was measured. The inserts were then washed in low calcium medium (LCM) containing either vehicle or compound to remove residual FITC-dextran and calcium, and FITC-dextran was once again spiked into the apical chamber and the percent permeation in LCM was measured. […] The fold induction of FITC-dextran permeation to the basolateral chamber when each well was transferred from baseline growth media to LCM was then calculated.

[3] = Pharmacokinetics (oral bioavailability) in C57BL/6 mice; conditions: mouse, in vivo; for bioavailability: IV 1 mg/kg, PO 30 mg/kg; for Vd: following IV administration, 1 mg/kg, read-out: volume of distribution
Experimental: Selected compounds were tested for pharmacokinetics in C57BL/6 mice. Compounds 1, 4, 31, 32, 40, 55, 57 and 60 were dosed IV at 1 mg/kg as a formulation of 0.2 mg/mL in 5% DMSO+30% PEG400+65% water and were dosed PO at 30 mg/kg as a formulation of 3 mg/mL in 0.25% MC+5% Tween 80+0.02% SDS. Compound 2 was dosed IV at 1 mg/kg as a formulation of 0.2 mg/mL in 5% ethanol +95% saline and was dosed PO at 30 mg/kg as a formulation of 3 mg/mL in 0.25% MC+5% Tween 80+0.02% SDS.

[4] = test system: Chemotherapy-induced Intestinal Injury Model; test: Diarrhea in mouse chemotherapy-induced (5FU) intestinal injury model; type: in vivo, BALB/c mice; conditions: 5FU 400 mg/kg IP; for Diarrhea Score Day 5 / Diarrhea Score Day 6: score 0-3
Experimental: Compounds were formulated in vehicle (0.25% methyl cellulose, 5% Tween 80, 0.02% sodium dodecyl sulfate (SDS) in Hanks' Buffered Salt Solution with Ca' and Mg'). On day 1, either saline or a 400 mg/kg dose of 5-fluorouracil (5FU) in saline was administered by intraperitoneal injection to BALB/c mice. Starting on day 2, vehicle or compound was administered twice a day by oral gavage. From days 5 to 6 post-5FU, the animals were scored for diarrhea severity once a day. The diarrhea was scored 0-3 as follows: 0—normal consistency (black and solid), 1—soft (black and a bit lighter/yellow), 2—loosely shaped stool (yellowish and somewhat watery), 3—extreme diarrhea (very watery).

[5] = test system: Acute Dextran Sulfate Sodium (DSS) Colitis Model; test: Intestinal barrier function in mouse acute DSS colitis model (FITC-dextran); type: in vivo, C57B1/6 mice; conditions: 30 mg/kg QD oral; 3% DSS 7 days; serum FITC-dextran
Experimental: Compounds were formulated in vehicle (0.25% methyl cellulose, 5% Tween 80, 0.02% sodium dodecyl sulfate (SDS) in Hanks' Buffered Salt Solution with Ca^2+ and Mg^2+). Vehicle or compound was administered once daily by oral gavage to C57B1/6 mice. After 3 days of pre-dosing, dextran sulfate sodium (DSS) was simultaneously administered at 3% in drinking water, and appropriate water-only controls were included.
After 7 days of DSS administration, animals treated were switched back to their regular water source and administered a single oral bolus dose of FITC-dextran (FD) four hours prior to necropsy. The animals were sacrificed by cardiac puncture and serum was collected. The concentration of […] present in serum was determined by measuring fluorescence intensity on a standard plate reader, and fitting values back to a standard curve.

[6] = Caco-2, pH 7.4, Mean Recovery A to B
[7] = Caco-2, pH 7.4, Mean Recovery B to A

Row | Papp A→B at 2 h, 2 μM (in vitro) | Papp B→A at 2 h, 2 μM (in vitro) | efflux ratio at 2 h, 2 μM (in vitro) | recovery at 2 h, 2 μM (in vitro; [6]) | recovery at 2 h, 2 μM (in vitro; [7]) | permeability (in words) (Caco-2 cells) | EC50 [1] | bioavailability [3] | Vd [3] | half-life [3] | Compound | % Change in Average Total AUC (0-90 min) vs. Vehicle (blood glucose levels; 30 mpk PO) | change in blood glucose AUC vs. vehicle / systemic AMPK activation (in words) (blood glucose levels) | Change in Fluorescence Intensity vs. Vehicle [5] | other results
1 | < 0.25 ×10⁻⁶ cm/s | 0.73 ×10⁻⁶ cm/s | > 2 | < 82.6% | 89.9% | low permeability | 50 pM | < 1% | < 5 L/kg |  | O=C(NC[C@H](O)[C@@H](O)[C@H](O)[C@H](O)CO)c1ccc(-c2ccc(-c3nc4nc(O[C@@H]5CO[C@H]6[C@@H]5OC[C@H]6O)[nH]c4cc3Cl)cc2)cc1 [Compound 1, 4′-(6-chloro-2-(((3R,3aR,6R,6aR)-6-hydroxyhexahydrofuro[3,2-b]furan-3-yl)oxy)-1H-imidazo [4,5-b]pyridin-5-yl)-N-((2S,3R,4R,5R)-2,3,4,5,6-pentahydroxyhexyl)-[1,1′-biphenyl]-4-carboxamide] | −7.5% | do not lead to activation of AMPK in skeletal muscle |  | Efflux Ratio (Caco-2 cells; human, Caco-2, 2 h, 2 μM, pH 7.4): >2.90; reduction of FITC-dextran permeation relative to vehicle ([2]; 0.1 μM): 33%; reduction of FITC-dextran permeation relative to vehicle ([2]; 10 μM): 35%
2 | < 0.48 ×10⁻⁶ cm/s | 0.71 ×10⁻⁶ cm/s | > 1.48 | < 99.6% | 102% | low permeability | 100 pM | < 1% | < 1 L/kg | 1.4 h | OC[C@@H](O)[C@@H](O)[C@H](O)[C@@H](O)CNCc1ccc(-c2ccc(-c3nc4nc(O[C@@H]5CO[C@H]6[C@@H]5OC[C@H]6O)[nH]c4cc3Cl)cc2)cc1 [Compound 4, (2R,3R,4R,5S)-6-(((4′-(6-chloro-2-(((3R,3aR,6R,6aR)-6-hydroxyhexahydrofuro[3,2-b]furan-3-yl)oxy)-1H-imidazo[4,5-b]pyridin-5-yl)-[1,1′-biphenyl]-4-yl)methyl)amino)hexane-1,2,3,4,5-pentaol] | −0.9% | do not lead to activation of AMPK in skeletal muscle | −43% | Diarrhea Score Day 5, % Change vs. Vehicle ([4]; 3 mpk BID oral): −16%; Diarrhea Score Day 6, % Change vs. Vehicle ([4]; 3 mpk BID oral): −44%; Diarrhea Score Day 5 ([4]; 3 mpk BID oral): 0.75; Diarrhea Score Day 6 ([4]; 3 mpk BID oral): 1.00; Diarrhea Score Day 5, % Change vs. Vehicle ([4]; 10 mpk BID oral): −72%; Diarrhea Score Day 6, % Change vs. Vehicle ([4]; 10 mpk BID oral): −79%; Diarrhea Score Day 5 ([4]; 10 mpk BID oral): 0.25; Diarrhea Score Day 6 ([4]; 10 mpk BID oral): 0.38; % Change in Average Total AUC (0-90 min) vs. Vehicle (blood glucose levels; 100 mpk PO): +2.3%
3 | 0.115 ×10⁻⁶ cm/s | 31.7 ×10⁻⁶ cm/s |  | 83.2% | 97.8% | low permeability | 850 pM | < 10% | < 5 L/kg | 1.7 h | O=C(NCCOCCO)c1ccc(-c2ccc(-c3cc4nc(O[C@@H]5CO[C@H]6[C@@H]5OC[C@H]6O)[nH]c4cc3Cl)cc2)cc1 [Compound 31, 4′-(6-chloro-2-(((3R,3aR,6R,6aR)-6-hydroxyhexahydrofuro[3,2-b]furan-3-yl)oxy)-1H-benzo[d]imidazol-5-yl)-N-(2-(2-hydroxyethoxy)ethyl)-[1,1′-biphenyl]-4-carboxamide] |  |  | −41% | Diarrhea Score Day 5, % Change vs. Vehicle ([4]; 30 mpk BID oral): −67%; Diarrhea Score Day 6, % Change vs. Vehicle ([4]; 30 mpk BID oral): −61%; Diarrhea Score Day 5 ([4]; 30 mpk BID oral): 0.43; Diarrhea Score Day 6 ([4]; 30 mpk BID oral): 0.63
